For the experiment, the target named is Carbonic anhydrase 2 (Bos taurus, UniProt P00921). As to the kind of experiment: SPR biosensor assay Biacore T100. As to conditions: 25 °C; for kon: pH 7.4, read-out: kon (M-1-s-1); for Kd: pH 7.4. The source says: SPR biosensor assay Biacore T100
(In general: In SPR one partner is held on a chip, and binding of the other changes the refractive index at the surface.)

As a reminder, the kon is the rate constant with which the complex forms. For orientation: Kd means the constant that tells how readily two partners part at equilibrium. In general, koff refers to the first-order rate constant of dissociation.

Each structure is given as a SMILES string.

Chain of Carbonic anhydrase 2 (P00921 whole entry): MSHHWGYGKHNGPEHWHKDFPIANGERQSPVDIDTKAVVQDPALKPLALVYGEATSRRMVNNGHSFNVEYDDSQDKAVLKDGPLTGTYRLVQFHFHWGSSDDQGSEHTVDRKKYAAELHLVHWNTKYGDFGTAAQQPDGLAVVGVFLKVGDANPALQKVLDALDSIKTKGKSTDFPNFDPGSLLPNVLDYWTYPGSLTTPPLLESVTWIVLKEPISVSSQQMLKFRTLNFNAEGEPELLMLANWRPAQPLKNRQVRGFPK

On to `NS(=O)(=O)c1ccc2c(c1)OCCO2` [2,3-dihydro-1,4-benzodioxine-6-sulfonamide], for which the kon was 109000 M⁻¹ s⁻¹ and the Kd came out at 817 nM.
Taken in the same sequence, the figures for `NS(=O)(=O)c1cc(Cl)cc(Cl)c1` [3,5-dichlorobenzene-1-sulfonamide] were 259000 M⁻¹ s⁻¹ and 287 nM.
Regarding `Cc1c(Cl)cc(F)cc1S(N)(=O)=O` [3-chloro-5-fluoro-2-methylbenzene-1-sulfonamide], the kon worked out at 76300 M⁻¹ s⁻¹ and binding was put at a Kd of 96.8 nM.
Taken in the same sequence, the figures for `O=C1NNS(=O)(=O)c2ccccc21` [1,4-dioxo-1,2,3,4-tetrahydro-1,2,3-benzothiadiazin-1-ium-1-olate] were 1.94e+06 M⁻¹ s⁻¹ and 38900 nM.
Consider `Cn1cnc(S(N)(=O)=O)c1` [1-methyl-1H-imidazole-4-sulfonamide], for which the kon amounted to 164000 M⁻¹ s⁻¹ and binding was characterised by a dissociation constant (Kd) of 35300 nM. The koff (pH 7.4, read-out: koff (s-1)) is 4.65 s⁻¹.
Consider `NS(=O)(=O)c1ccc(F)cc1F` [2,4-difluorobenzene-1-sulfonamide], for which the kon was found to be 107000 M⁻¹ s⁻¹ and the Kd came to 394 nM.
The like results for `CCCn1c(=O)[nH]c2cc(S(N)(=O)=O)ccc21` [2-oxo-1-propyl-2,3-dihydro-1H-1,3-benzodiazole-5-sulfonamide] were, in that order, 93500 M⁻¹ s⁻¹ and 197 nM.
Turning to `Nc1nc2ccc(S(N)(=O)=O)cc2s1` [2-amino-1,3-benzothiazole-6-sulfonamide], the kon is 19600 M⁻¹ s⁻¹ and the affinity, expressed as Kd, was 383 nM.
The like results for `NS(=O)(=O)c1ccc2c(c1)CCN2` [2,3-dihydro-1H-indole-5-sulfonamide] were, in that order, 58500 M⁻¹ s⁻¹ and 3110 nM.
The like results for `Nc1ccc(S(N)(=O)=O)cn1` [6-aminopyridine-3-sulfonamide] were, in that order, 203000 M⁻¹ s⁻¹ and 10800 nM.
The like results for `Cc1ccccc1S(N)(=O)=O` [2-methylbenzene-1-sulfonamide] were, in that order, 240000 M⁻¹ s⁻¹ and 2180 nM.

(Values after BindingDB's records for doi:10.7270/Q2BC3WXH (University of Dundee, 2010).)
